Measurements from US9944602B2, “Piperidinone herbicides” (E. I. DU PONT DE NEMOURS AND COMPANY, priority 2014, dated 2018).

What was measured:
Type in all cases: in vivo
[1] = tested on: barnyardgrass (Echinochloa crus-galli); assay: Test A preemergence barnyardgrass; conditions: Echinochloa crus-galli, pre-emergence, 240 h, 0 to 100 scale, 0 no effect, 100 complete control, read-out: Barnyardgrass plant response rating
Outline: (§1)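 Both application timings used the same loam-and-sand medium and the same solvent–surfactant formulation. Postemergence plants were 2–10 cm at the one- to two-leaf stage. After roughly 10 d of greenhouse growth, injury was judged visually against untreated plants, where 0 is no effect and 100 complete control.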

kochia (Kochia scoparia) [2] = assay: Test A preemergence kochia; conditions: Bassia scoparia, pre-emergence, 240 h, 0 to 100 scale, 0 no effect, 100 complete control, read-out: Kochia plant response rating
Outline: as §1

[3] = tested on: ragweed (common ragweed, Ambrosia elatior); assay: Test A preemergence ragweed; conditions: Ambrosia artemisiifolia, pre-emergence, 240 h, 0 to 100 scale, 0 no effect, 100 complete control, read-out: Ragweed plant response rating
Outline: as §1

[4] = tested on: ryegrass, Italian (Italian ryegrass, Lolium multiflorum); assay: Test A preemergence ryegrass, Italian; conditions: Lolium multiflorum, pre-emergence, 240 h, 0 to 100 scale, 0 no effect, 100 complete control, read-out: Ryegrass, Italian plant response rating
Outline: as §1

[5] = tested on: foxtail, giant (giant foxtail, Setaria faberii); assay: Test A preemergence foxtail, giant; conditions: Setaria faberi, pre-emergence, 240 h, 0 to 100 scale, 0 no effect, 100 complete control, read-out: Foxtail, Giant plant response rating
Outline: as §1

[6] = tested on: pigweed (Amaranthus retroflexus); assay: Test A preemergence pigweed; conditions: Amaranthus retroflexus, pre-emergence, 240 h, 0 to 100 scale, 0 no effect, 100 complete control, read-out: Pigweed plant response rating
Outline: as §1

[7] = tested on: barnyardgrass (Echinochloa crus-galli); assay: Test A postemergence barnyardgrass; conditions: Echinochloa crus-galli, post-emergence, 240 h, 0 to 100 scale, 0 is no effect, 100 is complete control, read-out: Plant response rating, Barnyardgrass
Outline: as §1

kochia (Kochia scoparia) [8] = assay: Test A postemergence kochia; conditions: Bassia scoparia, post-emergence, 240 h, 0 to 100 scale, 0 is no effect, 100 is complete control, read-out: Plant response rating, Kochia
Outline: as §1

[9] = tested on: ragweed (common ragweed, Ambrosia elatior); assay: Test A postemergence ragweed; conditions: Ambrosia artemisiifolia, post-emergence, 240 h, 0 to 100 scale, 0 is no effect, 100 is complete control, read-out: Plant response rating, Ragweed
Outline: as §1

[10] = tested on: ryegrass, Italian (Italian ryegrass, Lolium multiflorum); assay: Test A postemergence ryegrass, Italian; conditions: Lolium multiflorum, post-emergence, 240 h, 0 to 100 scale, 0 is no effect, 100 is complete control, read-out: Plant response rating, Ryegrass, Italian
Outline: as §1

[11] = tested on: foxtail, giant (giant foxtail, Setaria faberii); assay: Test A postemergence foxtail, giant; conditions: Setaria faberi, post-emergence, 240 h, 0 to 100 scale, 0 is no effect, 100 is complete control, read-out: Plant response rating, Foxtail, Giant
Outline: as §1

[12] = tested on: pigweed (Amaranthus retroflexus); assay: Test A postemergence pigweed; conditions: Amaranthus retroflexus, post-emergence, 240 h, 0 to 100 scale, 0 is no effect, 100 is complete control, read-out: Plant response rating, Pigweed
Outline: as §1

[13] = tested on: wheat (Triticum aestivum); assay: Test A postemergence wheat; conditions: Triticum aestivum, post-emergence, 240 h, 0 to 100 scale, 0 is no effect, 100 is complete control, read-out: Plant response rating, Wheat
Outline: as §1

corn (Zea mays) = assay: Test A postemergence corn; conditions: Zea mays, post-emergence, 240 h, 0 to 100 scale, 0 is no effect, 100 is complete control
Outline: as §1

[14] = tested on: blackgrass (Alopecurus myosuroides); assay: Test A postemergence blackgrass; conditions: Alopecurus myosuroides, post-emergence, 240 h, 0 to 100 scale, 0 is no effect, 100 is complete control, read-out: Plant response rating, Blackgrass
Outline: as §1

[15] = tested on: galium (catchweed bedstraw, Galium aparine); assay: Test A postemergence galium; conditions: Galium, post-emergence, 240 h, 0 to 100 scale, 0 is no effect, 100 is complete control, read-out: Plant response rating, Galium
Outline: as §1

rice (Oryza sativa) = assay: Test B flooded paddy test rice; conditions: Oryza sativa, Table B, Flood, 250 g ai/ha, scale 0 to 100, read-out: Plant response rating
Outline: (§2)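 Water-applied paddy treatment: compound dosed into 3 cm flood on 2-leaf plants, read visually versus controls after 13 to 15 d.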

[16] = tested on: sedge, umbrella (small-flower umbrella sedge, Cyperus difformis); assay: Test B flooded paddy test sedge, umbrella; conditions: Cyperus difformis, Table B, Flood, 250 g ai/ha, scale 0 to 100, read-out: Plant response rating
Outline: as §2

[17] = tested on: ducksalad (Heteranthera limosa); assay: Test B flooded paddy test ducksalad; conditions: Heteranthera limosa, Table B, Flood, 250 g ai/ha, scale 0 to 100, read-out: Plant response rating
Outline: as §2

[18] = tested on: barnyardgrass (Echinochloa crus-galli); assay: Test B flooded paddy test barnyardgrass; conditions: Echinochloa crus-galli, Table B, Flood, 250 g ai/ha, scale 0 to 100, read-out: Plant response rating
Outline: as §2

Question: What does the source list for `CN1CC[C@H](c2ccc(F)cc2)[C@@H](C(=O)Nc2ccccc2C(F)(F)F)C1=O` [Compound 53, (3S,4S)-4-(4-fluorophenyl)-1-methyl-2-oxo-N-[2-(trifluoromethyl)phenyl]-3-piperidinecarboxamide]?
Answer: pest or weed control at 125 g/ha ([1]; 125 g ai/ha): 0%; pest or weed control at 500 g/ha ([1]; 500 g ai/ha): 80%; pest or weed control at 125 g/ha (kochia (Kochia scoparia) [2]; 125 g ai/ha): 0%; pest or weed control at 500 g/ha (kochia (Kochia scoparia) [2]; 500 g ai/ha): 0%; pest or weed control at 125 g/ha ([3]; 125 g ai/ha): 0%; pest or weed control at 500 g/ha ([3]; 500 g ai/ha): 0%; pest or weed control at 125 g/ha ([4]; 125 g ai/ha): 0%; pest or weed control at 500 g/ha ([4]; 500 g ai/ha): 0%; pest or weed control at 125 g/ha ([5]; 125 g ai/ha): 0%; pest or weed control at 500 g/ha ([5]; 500 g ai/ha): 90%; pest or weed control at 125 g/ha ([6]; 125 g ai/ha): 0%; pest or weed control at 500 g/ha ([6]; 500 g ai/ha): 50%; pest or weed control at 125 g/ha ([7]; 125 g ai/ha): 0%; pest or weed control at 500 g/ha ([7]; 500 g ai/ha): 0%; pest or weed control at 125 g/ha (kochia (Kochia scoparia) [8]; 125 g ai/ha): 0%; pest or weed control at 500 g/ha (kochia (Kochia scoparia) [8]; 500 g ai/ha): 0%; pest or weed control at 125 g/ha ([9]; 125 g ai/ha): 0%; pest or weed control at 500 g/ha ([9]; 500 g ai/ha): 0%; pest or weed control at 125 g/ha ([10]; 125 g ai/ha): 0%; pest or weed control at 500 g/ha ([10]; 500 g ai/ha): 0%; pest or weed control at 125 g/ha ([11]; 125 g ai/ha): 0%; pest or weed control at 500 g/ha ([11]; 500 g ai/ha): 20%; pest or weed control at 125 g/ha ([12]; 125 g ai/ha): 0%; pest or weed control at 500 g/ha ([12]; 500 g ai/ha): 0%; plant injury at 125 g/ha ([13]; 125 g ai/ha): 0%; plant injury at 500 g/ha ([13]; 500 g ai/ha): 20%; Corn plant response rating (crop injury, 0 = no effect, 100 = complete kill) at 125 g/ha (corn (Zea mays); 125 g ai/ha): 0%; Corn plant response rating (crop injury, 0 = no effect, 100 = complete kill) at 500 g/ha (corn (Zea mays); 500 g ai/ha): 20%; pest or weed control at 125 g/ha ([14]; 125 g ai/ha): 0%; pest or weed control at 500 g/ha ([14]; 500 g ai/ha): 20%; pest or weed control at 125 g/ha ([15]; 125 g ai/ha): 0%; pest or weed control at 500 g/ha ([15]; 500 g ai/ha): 0%; plant injury at 250 g/ha (rice (Oryza sativa)): 0%; pest or weed control at 250 g/ha [16]: 0%; pest or weed control at 250 g/ha [17]: 0%; pest or weed control at 250 g/ha [18]: 0%
